Measured values reported in PubChem BioAssay (NCI).
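Exposure lasted 48 hours, with cells grown in 96-well plates and compounds tested at five concentrations. TGI marks complete inhibition of growth.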 Where a SMILES comes first, the peptide text is derived from it. [ ]: non-standard residue; d: D form. The star is where a group is joined. X28 = COC1=CC(=O)N(C(=O)[C@@H](O*)C(C)C)[C@H]1Cc1ccccc1; NMeL = CN[C@@H](CC(C)C)C(=O)O; Hexanoyl = CCCCCC(=O)*

Assays:
Assay in all cases: growth of human tumour cells (NCI), 48 h
[1] = system: SF-539 CNS
[2] = system: NCI-H460 lung
[3] = system: LOX IMVI melanoma
[4] = system: HCT-15 colon
[5] = system: MCF7 breast
[6] = system: MALME-3M melanoma
[7] = system: HCC-2998 colon
[8] = system: SK-MEL-5 melanoma
[9] = system: ACHN renal
[10] = system: SR leukemia

Structure (SMILES)	TGI [1]	TGI [2]	TGI [3]	TGI [4]	TGI [5]	TGI [6]	TGI [7]	TGI [8]	TGI [9]	TGI [10]
Cc1cc2nc3c(C#N)c(-c4ccccc4)/c(=C\Nc4cccc(C(F)(F)F)c4)c(=O)n3c2cc1C	> 100 µM	> 100 µM	> 100 µM	> 100 µM	> 100 µM	> 100 µM	> 100 µM	> 100 µM	> 100 µM	–
c1ccc(COc2nc3ccc(C45CC6CC(CC(C6)C4)C5)cc3[nH]2)cc1	–	> 71.3 µM	36.5 µM	> 29.5 µM	> 100 µM	86.1 µM	56.4 µM	14.6 µM	> 100 µM	> 100 µM
N=C(/C=C/c1ccc(-c2cn3cc(/C=C/C(=N)N4CCOCC4)ccc3n2)cc1)N1CCOCC1	> 100 µM	> 100 µM	–	> 100 µM	> 100 µM	> 100 µM	> 100 µM	> 100 µM	> 100 µM	–
CCCCCC(=O)N[C@H](C(=O)N[C@H](C(=O)N(C)[C@@H](CC(C)C)C(=O)N1CCC[C@H]1C(=O)N1CCC[C@H]1C(=O)O[C@H](C(=O)N1C(=O)C=C(OC)[C@@H]1Cc1ccccc1)C(C)C)C(C)C)C(C)C (Hexanoyl-VV[NMeL]PP-X28)	> 100 µM	> 100 µM	> 100 µM	> 100 µM	> 100 µM	> 100 µM	> 100 µM	–	> 100 µM	–
O=c1[nH]c2ccc(CC(=S)N3CCN(c4ccccc4)CC3)cc2s1	> 100 µM	56.1 µM	> 100 µM	> 100 µM	> 100 µM	55.5 µM	–	–	> 100 µM	> 100 µM
Fc1ccc(C(=NCc2ccccc2)N2CCOCC2)cc1	> 100 µM	> 100 µM	> 100 µM	> 100 µM	> 100 µM	> 100 µM	–	> 100 µM	> 100 µM	> 100 µM
Cc1cccc(Nc2cn(CCOc3ccccc3)c(=O)[nH]c2=O)c1	–	> 100 µM	94 µM	> 100 µM	> 100 µM	–	91.6 µM	70.2 µM	> 100 µM	> 100 µM
Cc1c(Cl)cccc1NC(=O)C(=O)C1C(=O)NC(=O)NC1=O	> 100 µM	> 100 µM	> 100 µM	> 100 µM	–	> 100 µM	> 100 µM	> 100 µM	> 100 µM	> 100 µM
COC(=O)C1Cc2c([nH]c3ccccc23)-c2[nH]c3ccccc3c2CC(NC(C)=O)C(=O)NCC(=O)N1 (stereo not drawn)	> 100 µM	> 100 µM	> 100 µM	> 100 µM	> 100 µM	–	> 100 µM	> 100 µM	> 100 µM	–
COC(=O)CSc1[nH]c2nc(C)nc(Nc3ccccc3)c2c1C#N	–	–	> 10 µM	> 10 µM	> 10 µM	> 10 µM	> 10 µM	> 10 µM	–	> 10 µM
CCc1nnc2sc(-c3ccc(-c4ccc(Cl)cc4Cl)o3)nn12	–	> 100 µM	> 100 µM	> 100 µM	–	> 100 µM	–	> 100 µM	> 100 µM	> 100 µM
CCOC(=O)c1ccc(N=C/C=C(\Nc2ccc(C(=O)OCC)cc2)c2ccc3ccccc3c2)cc1	39.2 µM	> 100 µM	34.4 µM	61.1 µM	67 µM	43.6 µM	–	34.7 µM	> 100 µM	41.6 µM
N#CC(C(=O)c1ccccc1F)c1nc2cc(C(F)(F)F)ccc2s1 (stereo not drawn)	78.5 µM	> 100 µM	36.7 µM	56.7 µM	–	69.3 µM	–	52.3 µM	94.6 µM	–
CC(=O)OC1COC(N2C(=O)C(=O)c3cc(Br)c([N+](=O)[O-])cc32)C(OC(C)=O)C1OC(C)=O (stereo not drawn)	> 100 µM	> 100 µM	99 µM	> 100 µM	–	> 100 µM	> 100 µM	> 100 µM	> 100 µM	> 100 µM
CC(C)=NN/C(=N\S(=O)(=O)c1cc(Cl)c(Oc2ccc([N+](=O)[O-])cc2Cl)c(Cl)c1)Nc1ccc(Cl)cc1	–	> 100 µM	> 100 µM	> 100 µM	> 100 µM	> 100 µM	–	> 100 µM	–	–
CC(=O)OC(C)(C)C1CCC(C)(C(O)COc2ccc(CCNC(=O)c3ccccc3)cc2)O1 (stereo not drawn)	> 100 µM	> 100 µM	> 100 µM	> 100 µM	–	> 100 µM	–	29.4 µM	> 100 µM	> 100 µM
NC12c3c4cccc3Oc3cccc(c31)Oc1cccc(c12)O4	> 50 µM	> 50 µM	–	> 50 µM	> 50 µM	–	–	–	> 50 µM	> 50 µM

Structure (SMILES)	TGI [1]	TGI [2]	TGI [3]	TGI [4]	TGI [5]	TGI [6]	TGI [7]	TGI [8]	TGI [9]	TGI [10]
O=C(O)CCCN1CCCCC1	–	> 100 µM	> 100 µM	> 100 µM	–	> 100 µM	> 100 µM	> 100 µM	> 100 µM	> 100 µM
CC(=O)NC1C(OCC(=O)NC(C)C(=O)NC(CCC(=O)NCCCCCNc2ccc([N+](=O)[O-])c3[nH]c4ccccc4c(=O)c23)C(N)=O)C(O)C(CO)OC1(C)OCc1ccccc1 (stereo not drawn)	> 50 µM	> 50 µM	> 50 µM	> 50 µM	> 50 µM	26.9 µM	> 50 µM	> 50 µM	> 50 µM	–
NS(=O)(=O)c1ccc(CNC(=S)NC(=O)Nc2ccc(Cl)c(Cl)c2)cc1	41.5 µM	94 µM	27.9 µM	31.8 µM	39 µM	57.1 µM	–	33 µM	46 µM	–
Cc1ccc(S(=O)(=O)OC2CN3CCC2CC3)cc1 (stereo not drawn)	> 100 µM	> 100 µM	> 100 µM	> 100 µM	> 100 µM	> 100 µM	–	> 100 µM	> 100 µM	> 100 µM
CC1OC(OP(=O)(OCc2ccccc2)OCc2ccccc2)C(OC(=O)c2ccccc2)C(OC(=O)c2ccccc2)C1I (stereo not drawn)	–	> 100 µM	> 100 µM	> 100 µM	–	> 100 µM	> 100 µM	> 100 µM	> 100 µM	80.7 µM
O=C(/C=C1\N=C(c2ccccc2)N(c2ccc3c(c2)Sc2cc(N4C(=O)/C(=C/C(=O)/C=C/c5ccccc5)N=C4c4ccccc4)ccc2N3)C1=O)/C=C/c1ccccc1	–	> 100 µM	84.9 µM	> 100 µM	56.1 µM	55.8 µM	> 100 µM	33.5 µM	> 100 µM	–
CCOC(=O)/C(O)=C(\C=N\C(=S)Nc1ccc(Cl)c(Cl)c1)C(=O)OCC	> 100 µM	> 100 µM	> 100 µM	> 100 µM	> 100 µM	> 100 µM	–	> 100 µM	> 100 µM	> 100 µM
CC(C)(C)NCC(O)COc1cccc2[nH]c(C#N)cc12 (stereo not drawn)	> 100 µM	–	–	> 100 µM	> 100 µM	> 100 µM	–	> 100 µM	> 100 µM	> 100 µM
CC1(C(O)c2ccccc2)CN(C(C)(C)C)C(=O)/C1=C\Sc1ccccc1 (stereo not drawn)	> 100 µM	–	32.1 µM	> 100 µM	> 100 µM	–	> 100 µM	> 100 µM	> 100 µM	> 100 µM
CCC1OC2C(CC=C(C)C)=C3OC(C)(O)C(C)(CC)C(O)C3=C3OC(=O)C=C1C32 (stereo not drawn)	53.6 µM	70.5 µM	35.9 µM	> 100 µM	> 100 µM	–	> 100 µM	> 100 µM	> 100 µM	–
COc1cc(O)c(C(=O)/C=C/c2ccc(O)cc2)cc1Oc1ccc(C(=O)/C=C/c2ccc(O)cc2)c(O)c1	5.51 µM	12.1 µM	10.7 µM	3.68 µM	13.5 µM	6.37 µM	–	4.19 µM	5.02 µM	> 100 µM
COc1ccc(N(C(=O)OC(C)(C)C)[C@@H]2C(C)=C[C@H]([S@@](=O)c3ccc(C)cc3)[C@@H]3C(=O)N(C)C(=O)[C@@H]32)cc1	43.5 µM	> 100 µM	17.5 µM	> 100 µM	62.1 µM	71.8 µM	–	43.7 µM	43.8 µM	–
O=Cc1cc(O)c(O)c(O)c1-c1c(C=O)cc(O)c(O)c1O	> 100 µM	> 100 µM	> 100 µM	> 100 µM	–	> 100 µM	> 100 µM	> 100 µM	> 100 µM	> 100 µM
N#Cc1nn(-c2ccc(Cl)cc2)c(N)c2c(=N)n3nc(-c4ccccc4)cc3nc12	–	> 92.3 µM	> 37.9 µM	> 100 µM	–	–	0.0134 µM	–	> 100 µM	10.7 µM
COc1cccc(-n2nnc3c(N)nc(N)nc32)c1	> 100 µM	> 100 µM	> 100 µM	> 100 µM	> 100 µM	> 100 µM	–	> 100 µM	> 100 µM	–
Brc1ccc(-c2ccc(-c3ccc(Br)s3)s2)s1	> 100 µM	> 100 µM	> 100 µM	> 100 µM	> 100 µM	–	> 100 µM	> 100 µM	> 100 µM	> 100 µM
CC(=O)c1nc2ccccc2n1CC(=O)c1ccc([N+](=O)[O-])cc1	> 100 µM	68.6 µM	23.2 µM	> 100 µM	58.8 µM	33.2 µM	–	–	–	> 100 µM
